We go through 75 molecules from PMC8869358, “High-Throughput Chemical Screening and Structure-Based Models to Predict hERG Inhibition” (Biology, 2022).

Where a name gives a salt, the structure may show the parent alone.

hERG, sequence (Q12809 whole entry): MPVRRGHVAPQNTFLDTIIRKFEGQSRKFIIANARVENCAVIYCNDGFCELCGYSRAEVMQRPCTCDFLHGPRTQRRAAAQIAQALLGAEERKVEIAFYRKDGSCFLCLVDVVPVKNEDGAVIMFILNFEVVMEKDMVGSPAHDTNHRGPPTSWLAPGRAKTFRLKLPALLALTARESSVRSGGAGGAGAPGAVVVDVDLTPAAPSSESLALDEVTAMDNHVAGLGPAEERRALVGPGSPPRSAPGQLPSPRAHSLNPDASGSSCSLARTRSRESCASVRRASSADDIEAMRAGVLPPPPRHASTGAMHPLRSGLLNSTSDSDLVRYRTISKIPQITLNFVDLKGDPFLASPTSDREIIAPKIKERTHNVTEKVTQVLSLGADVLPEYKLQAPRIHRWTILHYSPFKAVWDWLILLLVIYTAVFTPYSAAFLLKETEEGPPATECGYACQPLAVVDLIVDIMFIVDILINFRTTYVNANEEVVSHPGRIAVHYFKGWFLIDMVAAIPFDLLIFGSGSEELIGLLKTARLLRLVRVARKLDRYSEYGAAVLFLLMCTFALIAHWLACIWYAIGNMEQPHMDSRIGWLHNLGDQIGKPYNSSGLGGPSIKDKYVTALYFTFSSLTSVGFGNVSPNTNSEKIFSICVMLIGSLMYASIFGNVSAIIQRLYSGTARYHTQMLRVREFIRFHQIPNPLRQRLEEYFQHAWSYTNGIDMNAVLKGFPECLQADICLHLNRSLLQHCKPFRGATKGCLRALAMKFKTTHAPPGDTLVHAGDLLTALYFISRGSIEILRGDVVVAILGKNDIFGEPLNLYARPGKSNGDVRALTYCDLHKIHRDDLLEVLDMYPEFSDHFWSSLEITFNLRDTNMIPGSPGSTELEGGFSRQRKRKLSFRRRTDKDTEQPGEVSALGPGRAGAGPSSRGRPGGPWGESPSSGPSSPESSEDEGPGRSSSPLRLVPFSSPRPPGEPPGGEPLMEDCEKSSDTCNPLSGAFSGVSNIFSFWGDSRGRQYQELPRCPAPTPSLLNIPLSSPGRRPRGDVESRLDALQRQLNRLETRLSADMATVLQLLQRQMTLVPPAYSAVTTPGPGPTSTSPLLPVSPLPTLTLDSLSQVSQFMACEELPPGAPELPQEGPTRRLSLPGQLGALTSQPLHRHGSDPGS

The assay addresses hERG (Homo sapiens, UniProt Q12809). The assay is described as follows: cell-based. Particulars: (-LOG10(IC50), µM).
The molecule `CCCN(CCC)C(=O)C(CCC(=O)OCCCN1CCN(CCOC(=O)Cc2c(C)n(C(=O)c3ccc(Cl)cc3)c3ccc(OC)cc23)CC1)NC(=O)c1ccccc1` (stereo not drawn) [Proglumetacin] had an IC50 of 0.365 µM.

Molecule `[H]/N=C(\N/C(=N/[H])Nc1ccc(Cl)cc1)NC(C)C` [Proguanil hydrochloride] showed an IC50 of 20.1 µM.

In the case of `CN(C)CCCN1c2ccccc2Sc2ccccc21` [Promazine hydrochloride], the IC50 was 9.52 µM.

`CC(CN1c2ccccc2Sc2ccccc21)N(C)C` (stereo not drawn) [Promethazine hydrochloride] gave a half-maximal inhibitory concentration (IC50) of 23 µM.

In turn, `CC(CN1c2ccccc2Sc2ccccc21)N(C)C` (stereo not drawn) [Promethazine] had an IC50 of 19.7 µM.

The molecule `C#CCOS(=O)OC1CCCCC1Oc1ccc(C(C)(C)C)cc1` (stereo not drawn) [Propargite] had a half-maximal inhibitory concentration (IC50) of 20.7 µM.

`CCC(=O)c1ccc2c(c1)N(CCCN(C)C)c1ccccc1S2` [Propionylpromazine hydrochloride]: the concentration for half-maximal inhibition (IC50) was 9.16 µM.

In the case of `CCCOC(C(=O)OC1CCN(C)CC1)(c1ccccc1)c1ccccc1` [Propiverine hydrochloride], half-maximal inhibition (IC50) required 14.2 µM.

Turning to `O=C(CCN1CCC(c2ccccc2)C1)c1ccc2c(c1)OCCO2` (stereo not drawn) [Proroxan], the IC50 is 17.6 µM.

In turn, `CCCSSC(CCO)=C(C)N(C=O)Cc1cnc(C)nc1N` [Prosultiamine] gave an IC50 of 10.7 µM.

For the molecule `CNCCCC1c2ccccc2C=Cc2ccccc21` [Protriptyline hydrochloride], the 50% inhibitory concentration (IC50) was 23.9 µM.

In turn, `CCOC(=O)COc1cc(-c2nn(C)c(OC(F)F)c2Cl)c(F)cc1Cl` [Pyraflufen-ethyl] had an IC50 of 33.4 µM.

On to `CCOC(=O)c1cn2nc(OP(=S)(OCC)OCC)cc2nc1C` [Pyrazophos], for which the IC50 is 51.9 µM.

Molecule `COc1ccc(CN(CCN(C)C)c2ccccn2)cc1` [Pyrilamine maleate] showed a half-inhibitory concentration (IC50) of 20.9 µM.

Take `COc1ccc(CN(CCN(C)C)c2ccccn2)cc1` [Pyrilamine]: the half-maximal inhibitory concentration (IC50) is 27.4 µM. This IC50 and that of the molecule before are within 1.5-fold of each other.

The molecule `CC(COc1ccc(Oc2ccccc2)cc1)Oc1ccccn1` (stereo not drawn) [Pyriproxyfen] gave an IC50 of 21 µM.

In turn, `Fc1ccc(Oc2ccnc3cc(Cl)cc(Cl)c23)cc1` [Quinoxyfen] showed an IC50 of 22.7 µM.

For the molecule `CCOC(=O)C(C)Oc1ccc(Oc2cnc3cc(Cl)ccc3n2)cc1` (stereo not drawn) [Quizalofop-ethyl], 17.1 µM corresponded to half-maximal inhibition (IC50). This IC50 and that of the molecule before are within 1.5-fold of each other.

The molecule `Cn1cc(C(=O)[C@@H]2CCc3nc[nH]c3C2)c2ccccc21` [Ramosetron hydrochloride] had a 50% inhibitory concentration (IC50) of 20.5 µM.

In turn, `COC(=O)[C@H]1[C@H]2C[C@@H]3c4[nH]c5cc(OC)ccc5c4CCN3C[C@H]2C[C@@H](OC(=O)/C=C/c2ccc(O)c(OC)c2)[C@@H]1OC` [Rescimetol] had an IC50 of 1.57 µM. This IC50 lies about 13-fold lower than the previous one.

For `COC(=O)[C@H]1[C@H]2C[C@@H]3c4[nH]c5cc(OC)ccc5c4CCN3C[C@H]2C[C@@H](OC(=O)c2cc(OC)c(OC)c(OC)c2)[C@@H]1OC` [Reserpine], the IC50 was 9.16 µM.

The molecule `C[C@@H]1CN(CCCn2c3ccccc3c3ccccc32)C[C@H](C)N1` [Rimcazole dihydrochloride] showed a half-maximal inhibitory concentration (IC50) of 7.86 µM. This IC50 and that of the molecule before are within 1.5-fold of each other.

Regarding `Cc1c(C(=O)NN2CCCCC2)nn(-c2ccc(Cl)cc2Cl)c1-c1ccc(Cl)cc1` [Rimonabant], the half-inhibitory concentration (IC50) was 3.25 µM.

In the case of `O=C(CCCCCCCCc1cccnc1)N1CCC(C=C(c2ccccc2)c2ccccc2)CC1` [Ro 23-7637], the IC50 was 11 µM.

Molecule `N=C(N/N=C/c1ccc(Cl)cc1)N/N=C/c1ccc(Cl)cc1` [Robenidine] gave an IC50 of 1.69 µM.

As to `CCCN(CCc1cccs1)[C@H]1CCc2c(O)cccc2C1` [Rotigotine], the IC50 is 3.01 µM.

`Oc1ccc2[nH]cc(CCCCN3CC=C(c4ccccc4)CC3)c2c1` [Roxindole] gave an IC50 of 3.38 µM. This IC50 and that of the molecule before are within 1.5-fold of each other.

For the molecule `C=CCC1=C(C)[C@@H](OC(=O)[C@@H]2[C@@H](C=C(C)C)C2(C)C)CC1=O` [S-Bioallethrin], it took 23.6 µM to reach half-maximal inhibition (IC50). Against the preceding molecule, the IC50 is about 7-fold higher.

For the molecule `CC(=O)NC1(c2cccc(F)c2)CCN(CC[C@@]2(c3ccc(Cl)c(Cl)c3)CN(c3ccccc3)C(=O)CO2)CC1` [SAR102779], the IC50 was 9.08 µM.

For `CCOC(=O)c1ccc([C@H]2CC[C@H](NC[C@H](O)COc3ccc(O)c(NS(C)(=O)=O)c3)CC2)cc1` [SAR 150640], the IC50 was 28.5 µM.

For `Cc1nc(-c2ccc3c(c2)CCN(CCC2CCC(NC(=O)/C=C/c4ccc(F)cc4)CC2)CC3)no1` (stereo not drawn) [SB413217A], the IC50 is 1.02 µM. Compared with the last molecule, the IC50 is about 28-fold lower.

Consider `CCOC(=O)COc1ccc2c(c1)CC(NCC(O)c1cccc(Cl)c1)CC2` (stereo not drawn) [SR58611], for which the 50% inhibitory concentration (IC50) was 1.45 µM.

The molecule `COc1cccc(-c2ccc(/C=C\CN3CCCCCC3)cc2Cl)c1` [SR125047] had an IC50 of 1.48 µM.

In turn, `CN(C)C(=O)NC1(c2ccccc2)CCN(CC[C@@]2(c3ccc(F)c(F)c3)CN(C(=O)c3ccccc3)CCO2)CC1` [SR144190] had a half-maximal inhibitory concentration (IC50) of 20.3 µM. Compared with the last molecule, the IC50 is about 14-fold higher.

In the case of `CN(C)C(=O)NC1(c2ccccc2)CCN(CCC[C@]2(c3ccc(Cl)c(Cl)c3)CCCN(C(=O)c3ccccc3)C2)CC1` [SSR146977], the IC50 was 1.71 µM.

The molecule `O=C(N[C@@H](c1ccccc1)[C@@H]1CCCCN1)c1cccc(C(F)(F)F)c1Cl` [SSR504734] had a 50% inhibitory concentration (IC50) of 50.9 µM.

In turn, `O=C(N[C@H](c1ccccc1)[C@@H]1CN2CCC1CC2)c1c(Cl)ccc(C(F)(F)F)c1Cl` [SSR 103800] gave an IC50 of 30.2 µM.

Turning to `COc1ccc2cc(S(=O)(=O)N[C@H](CC(=O)N[C@H](Cc3ccc(CN4[C@H](C)CCC[C@@H]4C)cc3)C(=O)N(C)C(C)C)c3ccc4c(c3)OCO4)ccc2c1` [SSR 240612], it took 7.07 µM to reach half-maximal inhibition (IC50). Against the preceding molecule, the IC50 is about 4.3-fold lower.

Turning to `CN(C)C(=O)C1(N2CCCCC2)CCN(CC[C@@]2(c3ccc(Cl)c(Cl)c3)CN(C(=O)c3ccccc3)CCO2)CC1` [SSR 241586 HCl], inhibition was half-maximal at 9.49 µM (IC50).

For `CC(C)(C)NC(=O)[C@@H]1C[C@@H]2CCCC[C@@H]2CN1C[C@@H](O)[C@H](Cc1ccccc1)NC(=O)[C@H](CC(N)=O)NC(=O)c1ccc2ccccc2n1` [Saquinavir mesylate], inhibition was half-maximal at 22.2 µM (IC50).

Turning to `Cc1nc2n(c(=O)c1CCN1CCC(C(=O)c3ccc(F)cc3)CC1)CCS2` [Setoperone], the IC50 was 9.89 µM.

For `CCCc1ccc(OCC(=O)N2CCN(C(=O)COc3ccc(CCC)cc3OC)CC2)c(OC)c1` [Simetride], the IC50 is 1.4 µM. Against the preceding molecule, the IC50 is about 7.1-fold lower.

Take `CCCCCCCCCCCCc1ccccc1S(=O)(=O)O` [Sodium dodecylbenzenesulfonate]: the IC50 was 24.5 µM. Against the preceding molecule, the IC50 is about 18-fold higher.

`CNC(=O)c1cc(Oc2ccc(NC(=O)Nc3ccc(Cl)c(C(F)(F)F)c3)cc2)ccn1` [Sorafenib tosylate] showed an IC50 of 22.1 µM.

As for `O=C(CCCN1CCC2(CC1)C(=O)NCN2c1ccccc1)c1ccc(F)cc1` [Spiperone], it took 1.76 µM to reach half-maximal inhibition (IC50).

As to `CCCN(CC)CC1COC2(CCC(C(C)(C)C)CC2)O1` (stereo not drawn) [Spiroxamine], the midpoint of inhibition, the IC50, lay at 34.7 µM.

In turn, `O=C1NCN(c2ccccc2)C12CCN(CC1COc3ccccc3O1)CC2` (stereo not drawn) [Spiroxatrine] showed an IC50 of 6.24 µM. This IC50 is about 5.6-fold lower than that of the molecule before.

The molecule `CC[N+](CC)(CC)CCOc1ccc(/C=C/c2ccccc2)cc1` [Stilonium iodide] gave an IC50 of 8.82 µM.

`C=C(Cl)CSC(=S)N(CC)CC` [Sulfallate]: half-maximal inhibition (IC50) required 51.5 µM.

Molecule `CCCCCCCCN[C@H](C)[C@@H](O)c1ccc(SC(C)C)cc1` [Suloctidil] had an IC50 of 0.29 µM.

Turning to `CCN1CCCC1CNC(=O)c1cc(S(N)(=O)=O)ccc1OC` (stereo not drawn) [Sulpiride], the 50% inhibitory concentration (IC50) was 34.7 µM.

`CCc1c(C(=O)NN2CCCCC2)nn(-c2ccc(Cl)cc2Cl)c1-c1ccc(Br)cc1` [Surinabant] gave a half-inhibitory concentration (IC50) of 6.92 µM.

On to `CCOc1ccccc1OCCN[C@H](C)Cc1ccc(OC)c(S(N)(=O)=O)c1` [Tamsulosin hydrochloride], for which the IC50 is 19.7 µM.

`CC(C)(C)C(O)(CCc1ccc(Cl)cc1)Cn1cncn1` (stereo not drawn) [Tebuconazole] had an IC50 of 21.9 µM.

For the molecule `CCc1nn(C)c(C(=O)NCc2ccc(C(C)(C)C)cc2)c1Cl` [Tebufenpyrad], the IC50 was 24.5 µM.

For `CCOP(=S)(Oc1cnc(C(C)(C)C)nc1)OC(C)C` (stereo not drawn) [Tebupirimfos], the IC50 amounted to 43.6 µM.

On to `CCCCCNC(=N)N/N=C/c1c[nH]c2ccc(OC)cc12` [Tegaserod], for which half-maximal inhibition (IC50) was put at 9.16 µM.

In the case of `CN(C/C=C/C#CC(C)(C)C)Cc1cccc2ccccc12` [Terbinafine], it took 9.52 µM to reach half-maximal inhibition (IC50). The IC50 values of the last two molecules are within 1.5-fold of each other.

With `CCN(CC)CCOc1ccc(Cc2ccccc2)cc1` [Tesmilifene], half-maximal inhibition (IC50) was put at 8.82 µM.

`CCC(=O)O[C@H]1CC[C@H]2[C@@H]3CCC4=CC(=O)CC[C@]4(C)[C@H]3CC[C@]12C` [Testosterone propionate]: inhibition was half-maximal at 25.8 µM (IC50).

The molecule `CCCC[P+](CCCC)(CCCC)CCCC` [Tetrabutylphosphonium bromide] showed an IC50 of 16 µM.

Consider `CCCC[P+](CCCC)(CCCC)CCCC` [Tetrabutylphosphonium chloride], for which half-maximal inhibition (IC50) required 23.2 µM.

Consider `CCCCCCCCCCCCCC[n+]1ccccc1` [Tetradecylpyridinium bromide], for which the half-maximal inhibitory concentration (IC50) was 5.49 µM. This IC50 is about 4.2-fold lower than that of the molecule before.

In the case of `CCCCCCCCCCCCCC[N+](C)(C)C` [Tetradonium bromide], 18.3 µM corresponded to half-maximal inhibition (IC50).

As for `CCCCC(CC)C(=O)OCCOCCOCCOCCOC(=O)C(CC)CCCC` (stereo not drawn) [Tetraethylene glycol di(2-ethylhexanoate)], 11 µM corresponded to half-maximal inhibition (IC50).

In turn, `CC(C)=CC1C(C(=O)OCN2C(=O)C3=C(CCCC3)C2=O)C1(C)C` (stereo not drawn) [Tetramethrin] had a concentration for half-maximal inhibition (IC50) of 40.4 µM.

In turn, `CN1CCC(N(Cc2cccs2)c2ccccc2)CC1` [Thenalidine] showed a half-maximal inhibitory concentration (IC50) of 4.96 µM.

As to `CS/C(C)=N/OC(=O)N(C)SN(C)C(=O)O/N=C(\C)SC` [Thiodicarb], inhibition was half-maximal at 43.6 µM (IC50).

Turning to `CN1CCN(CCCN2c3ccccc3Sc3ccc(S(=O)(=O)N(C)C)cc32)CC1` [Thioproperazine dimethanesulfonate], the half-inhibitory concentration (IC50) is 4.96 µM.

`CCN(CC)CCSC(=O)C(c1ccccc1)c1ccccc1` [Thiphenamil] showed an IC50 of 3.01 µM.

As for `CCCCCCCCCCCCCCCC[N+](C)(C)CCN(Cc1ccc(OC)cc1)c1ncccn1` [Thonzonium bromide], the midpoint of inhibition, the IC50, lay at 0.409 µM.

The molecule `COC1CC(=C(c2cccs2)c2cccs2)C[N+](C)(C)C1` (stereo not drawn) [Timepidium bromide] had an IC50 of 19.7 µM.

For the molecule `CCOC(=O)c1c(N)sc2c1CCN(Cc1ccccc1)C2` [Tinoridine], 21.3 µM corresponded to half-maximal inhibition (IC50). The IC50 values of the last two molecules are within 1.5-fold of each other.

Molecule `CC(C)C(=O)OCc1cccc(OC(=O)[C@@H]2N3C(=O)[C@@H](NC(=O)Cc4ccccc4)[C@H]3SC2(C)C)c1` [Tobicillin] gave a 50% inhibitory concentration (IC50) of 20.5 µM.

For `Cc1ccc(N(SC(F)(Cl)Cl)S(=O)(=O)N(C)C)cc1` [Tolylfluanid], the IC50 is 19.5 µM.
